Results from patent US20240270713A1, “NOVEL COMPOUND EXHIBITING THERAPEUTIC EFFECT ON INFLAMMATORY DISEASE AS P38 MAP KINASE INHIBITOR” (PRAZERTHERAPEUTICS INC., priority 2021, published 2024).

How the values were obtained:
TNFα mRNA [1] = assay: Cytokine mRNA expression inhibitory ability, TNFα, LPS-treated Raw264.7 cells; type: cell-based; settings: 1 μM compound 24 hours, then 100 ng/ml LPS 24 hours
Method: (§1) Evaluation of cytokine mRNA expression inhibitory ability according to inflammatory response
(§2) In order to identify inhibition of p-p38 MAPK, inhibition of p38 MAPK was identified after treating each compound to Raw264.7 cells obtained by converting macrophages that induces inflammation according to p-p38 MAPK activity cancerous cells. Briefly, Raw264.7 cells were cultured in Dulbecco's modified Eagle Medium supplemented with 10% fetal bovine serum and penicillin/streptomycin (100 U/ml). Raw264.7 cells were treated with 1 μM of Compounds 1 to 5 according to the present disclosure in a culture dish respectively and cultured for 24 hours in a CO2 incubator, and then treated with 100 ng/ml of LPS, followed by additional culture for 24 hours in a CO2 incubator.
(§3) After cell culture was terminated according to the experimental conditions, cells were washed with cold phosphate buffered saline (PBS). The cells were then collected and centrifuged at 1200 rpm for 3 minutes. RNA was extracted according to the method provided in the Hybrid-R total RNA purification kit (GeneAll, 305-101). After measuring the concentration and purity of RNA using Nanodrop, cDNA was synthesized according to the method provided in TOPscript RT DryMIX (Enzynomics, RT200). After a reaction at 95° C. for 3 minutes using SYBR Green Mix along with primer, cDNA was subjected to repetitive reactions 30 times at 95° C. for 10 seconds, at 55° C. for 10 seconds, and at 72° C. for 30 seconds to determine the RNA expression level. The results are shown in Tables 5 and 6 below and FIGS. 1 and 2.

IL-1β mRNA [2] = assay: Cytokine mRNA expression inhibitory ability, IL-1β, LPS-treated Raw264.7 cells; type: cell-based; settings: 1 μM compound 24 hours, then 100 ng/ml LPS 24 hours
Method: as §1, §2, §3

p-p38 MAPK [3] = molecular target: T1, p-p38 MAPK (Mus musculus (Mouse), UniProt P47811); assay: p38 MAPK protein inhibitory ability in cells (p-p38 immunoblot, LPS-treated Raw264.7); type: cell-based; settings: Raw264.7 cells, 1 μM compound 24 hours, then 100 ng/ml LPS 6 hours
T1 sequence (P47811 whole entry): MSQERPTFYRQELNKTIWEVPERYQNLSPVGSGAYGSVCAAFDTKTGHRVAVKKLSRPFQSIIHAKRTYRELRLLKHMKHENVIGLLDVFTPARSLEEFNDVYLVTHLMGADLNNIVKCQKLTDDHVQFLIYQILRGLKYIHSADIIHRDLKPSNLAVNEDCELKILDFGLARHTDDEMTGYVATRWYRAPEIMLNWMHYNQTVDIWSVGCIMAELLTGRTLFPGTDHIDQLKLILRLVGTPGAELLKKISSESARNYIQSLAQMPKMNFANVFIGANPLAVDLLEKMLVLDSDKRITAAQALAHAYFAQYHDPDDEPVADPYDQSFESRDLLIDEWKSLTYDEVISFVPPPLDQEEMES
Method: Evaluation of p38 MAPK protein inhibitory ability in cells
as §2, with “Raw264.7 cells which are obtained by” for “Raw264.7 cells obtained by”, “MAPK activity into cancerous cells.” for “MAPK activity cancerous cells.”, “culture for 6 hours in” for “culture for 24 hours in”
(§4) After cell culture was terminated according to the experimental conditions, cells were washed with cold phosphate buffered saline (PBS). The cells were then collected and centrifuged at 1200 rpm for 3 minutes. The pellet was lysed with 2X sample buffer (1M Tris-HCl pH 6.8, 50% glycerol, 10% SDS, 2-mercaptoethanol, 1% bromophenol blue) and boiled at 100° C. for 10 minutes. The prepared protein samples were subjected to sodium dodecyl sulfate poly acrylamide gel electrophoresis and transferred to PVDF membrane (Millipore). For a specific binding reaction between the protein in the PVDF membrane and antibody, blocking was performed in a 5% bovine serum albumin (BSA, RMbio) solution. Subsequently, the BSA solution was discarded, and the membrane was washed with PBS-T (0.5% Tween 20 in PBS). The binding reaction of the protein in the membrane and antibody was performed overnight at 4° C. and washed again with PBS-T. Finally, a secondary antibody (Cell signaling Technology) conjugated with horse radish peroxidase (HRP) was diluted in PBS-T and reacted at room temperature for 2 hours. Luminata Forte HRP substrate (Millipore) was used to determine the amount of protein in the membrane, the results of which are shown in Table 4 below.

p38 alpha = p38 alpha (Homo sapiens (Human), UniProt Q16539); assay: p38α MAPK inhibitory ability (peptide/kinase mixture, development reagent, 445/520 nm); type: biochemical; settings: 1 hour at room temperature
p38 alpha, sequence (Q16539 whole entry): as the sequence (P47811 whole entry) above, with H48L, A263T counted along it
Method: Evaluation of p38a mitogen-activated protein kinase (MAPK) inhibitory ability
To determine the ability to inhibit p38 MAPK, Compounds 1 to 5 were diluted to determine the inhibitory effect depending on a concentration. Briefly, the compounds were diluted at concentrations of 1000, 333, 111, 37.0, 12.3, 4.12, 1.37, 0.457, 0.152, and 0.0495 nM, respectively, and then a peptide/kinase mixture (final 7.07-28.3 ng p38 alpha, 2 μM serine/threonine 15, 50 mM HEPES pH 7.0, 0.01% NaN3) and ATP solution were added respectively. After reacting at room temperature for 1 hour, a development reagent was added, followed by a reaction again at room temperature for 1 hour.

TNFα = TNFα inhibitory ability by cellular inflammatory response (supernatant, antibody-coated plate), Raw264.7 cells; type: cell-based; settings: Mus musculus, 1 μM compound 24 hours, then 100 ng/ml LPS 24 hours, supernatant protein
Method: Evaluation of TNFα inhibitory ability by cellular inflammatory response
as §2
After the cell culture was completed according to the experimental conditions, the supernatant was obtained and centrifuged for 3 minutes at 1200 rpm. The centrifuged supernatant was dispensed into an antibody-coated plate, reacted at room temperature for 2 hours, and washed with PBS-T (0.5% tween 20 in PBS). After dispensing detection antibody including HRP, a reaction was performed at room temperature for 1 hour, and the amount of protein was checked at a wavelength of 450 nm, the results of which are shown in Table 7 below.

IL-6 mRNA = assay: Cytokine mRNA expression inhibitory ability, IL-6, LPS-treated BV2 cells; type: cell-based; settings: 1 μM compound 24 hours, then 1000 ng/ml LPS 24 hours
Method: (§5) Evaluation of cytokine mRNA expression inhibitory ability by inflammatory response
(§6) In order to identify inhibition of p-p38 MAPK, the inhibition of p38 MAPK was identified by treating each compound to BV2 cells obtained by converting microglia that induces inflammation according to p-p38 MAPK activity in the brain into cancerous cells. Briefly, BV2 cells were cultured in Dulbecco's modified Eagle Medium supplemented with 10% fetal bovine serum and penicillin/streptomycin (100 U/ml). BV2 cells were treated with 1 μM of Compounds 4 to 6 according to the present disclosure in a culture dish respectively and cultured for 24 hours in a CO2 incubator, and then treated with 1000 ng/ml of LPS, followed by additional culture for 24 hours in a CO2 incubator.
(§7) After the cell culture was completed according to the experimental conditions, washing was performed with cold phosphate buffered saline (PBS). The cells were then collected and centrifuged at 1200 rpm for 3 minutes. RNA was extracted according to the method provided in the Hybrid-R total RNA purification kit (GeneAllR), 305-101). After measuring the concentration and purity of RNA using Nanodrop, cDNA was synthesized according to the method provided in TOPscript RT DryMIX (Enzynomics, RT200). […]

p-p38 MAPK [4] = molecular target: p-p38 MAPK (Homo sapiens (Human), UniProt Q16539); assay: p38 MAPK protein inhibitory ability in brain-derived cells (p-p38 immunoblot, SH-SY5Y); type: cell-based
p-p38 MAPK (Homo sapiens (Human), UniProt Q16539), sequence (Q16539 whole entry): as the sequence (P47811 whole entry) above, with H48L, A263T counted along it
Method: Evaluation of p38 MAPK protein inhibitory ability in brain-derived cells
In order to identify inhibition of p-p38 MAPK in brain cells, the inhibition of p38 MAPK was identified by inducing inflammation after treating each compound to SH-SYSY cells obtained by converting human neurons into cancerous cells. In short, SH-SY5Y cells were cultured in Minimum essential medium/Eagle's balanced salts supplemented with 10% fetal bovine serum and penicillin/streptomycin (100 U/ml). SH-SY5Y cells were treated with 1 μM of Compounds 4 and 6 according to the present disclosure in a culture dish respectively and cultured for 24 hours in a CO2 incubator, and then treated with 1000 ng/ml of LPS, followed by additional culture for 6 hours in a CO2 incubator.
as §4, with “The cells in the sediment were” for “The pellet was”, “Table 8” for “Table 4”

TNFα mRNA [5] = assay: Cytokine mRNA expression inhibitory ability, TNFα, LPS-treated BV2 cells; type: cell-based; settings: 1 μM compound 24 hours, then 1000 ng/ml LPS 24 hours
Method: as §5, §6, §7

IL-1β mRNA [6] = assay: Cytokine mRNA expression inhibitory ability, IL-1β, LPS-treated BV2 cells; type: cell-based; settings: 1 μM compound 24 hours, then 1000 ng/ml LPS 24 hours
Method: as §5, §6, §7

p-p38 MAPK [7] = molecular target: T1, p-p38 MAPK; assay: p38 MAPK protein inhibitory ability in normal brain cells (p-p38 immunoblot, primary neurons); type: cell-based, ICR mice
Excerpt: Evaluation of p38 MAPK protein inhibitory ability in normal brain cells
In order to identify inhibition of p-p38 MAPK in normal cells rather than cancer cells, the inhibition of p38 MAPK was identified by inducing inflammation after treating neuron cells obtained from cerebrum of ICR mice with each compound. In short, neurons were collected from the cerebrum of the embryos of ICR mice 17-18 days after gestation and cultured for 7 days in a neurobasal medium supplemented with 2% B27 supplements, 2 mM glutamine, and penicillin/streptomycin (100 U/ml). Primary neurons were treated with 1 μM of Compounds 4 and 6 according to the present disclosure in a culture dish respectively and cultured for 24 hours in a CO2 incubator, and then treated with 1000 ng/ml of LPS, followed by additional culture for 6 hours in a CO2 incubator.
as §4, with “After the” for “After”, “conditions, washing was performed” for “conditions, cells were washed”, “The cells in the sediment were” for “The pellet was”, “reaction between” for “reaction of”, “Table 9” for “Table 4”

Compound	inhibition at 1 µM (p-p38 MAPK [3]) [%]	IC50 (p38 alpha) [nM]	TNFα mRNA inhibition (TNFα mRNA [1]) [%]	IL-1β mRNA inhibition (IL-1β mRNA [2]) [%]	inhibition at 1 µM (TNFα) [%]	IL-6 mRNA inhibition (IL-6 mRNA) [%]	p38 phosphorylation in cells derived from human (result in words) (p-p38 MAPK [4]; 1 μM)	inhibition at 1 µM (p-p38 MAPK [4]; 1 μM compound 24 hours, then 1000 ng/ml LPS 6 hours) [%]	TNFα mRNA inhibition (TNFα mRNA [5]) [%]	IL-1β mRNA inhibition (IL-1β mRNA [6]) [%]	p38 phosphorylation due to inflammation in normal cells (result in words) (p-p38 MAPK [7]; primary mouse neurons, 1 μM)	inhibition at 1 µM (p-p38 MAPK [7]; primary neurons from cerebrum of ICR mouse embryos, 1 μM compound 24 hours, then 1000 ng/ml LPS 6 hours) [%]
Cc1c(F)cc(C(=O)NC2CC2)cc1-c1ccc(C(=O)c2cn(Cc3ccccc3)c3ccccc23)cn1 [Compound 5, 3-(5-(1-benzyl-1H-indole-3-carbonyl)pyridin-2-yl)-N-cyclopropyl-5-fluoro-4-methylbenzamide]	52.8	193	4.1	3.2	23.8							
Cc1c(F)cc(C(=O)NC2CC2)cc1-c1ccc(C(=O)c2cn(CC(O)CO)c3ccccc23)cn1 (stereo not drawn) [Compound 6, N-cyclopropyl-3-(5-(1-(2,3-dihydroxypropyl)-1H-indole-3-carbonyl)pyridin-2-yl)-5-fluoro-4-methylbenzamide]						14.4	effectively inhibited p38 phosphorylation	22.8	15.7	12.6	effectively inhibited p38 phosphorylation	60.7

Second part, led by results:

inhibition at 1 µM (p-p38 MAPK [3]) [%]	IC50 (p38 alpha) [nM]	Compound	TNFα mRNA inhibition (TNFα mRNA [1]) [%]	IL-1β mRNA inhibition (IL-1β mRNA [2]) [%]	inhibition at 1 µM (TNFα) [%]	IL-6 mRNA inhibition (IL-6 mRNA) [%]	p38 phosphorylation in cells derived from human (result in words) (p-p38 MAPK [4]; 1 μM)	inhibition at 1 µM (p-p38 MAPK [4]; 1 μM compound 24 hours, then 1000 ng/ml LPS 6 hours) [%]	TNFα mRNA inhibition (TNFα mRNA [5]) [%]	IL-1β mRNA inhibition (IL-1β mRNA [6]) [%]	p38 phosphorylation due to inflammation in normal cells (result in words) (p-p38 MAPK [7]; primary mouse neurons, 1 μM)	inhibition at 1 µM (p-p38 MAPK [7]; primary neurons from cerebrum of ICR mouse embryos, 1 μM compound 24 hours, then 1000 ng/ml LPS 6 hours) [%]
69	34.1	O=C(NC1CC1)c1ccc(Cl)c(-c2ccc(C(=O)c3c[nH]c4ccccc34)cc2)c1 [Compound 2, 6-chloro-N-cyclopropyl-4′-(1H-indole-3-carbonyl)-[1,1′-biphenyl]-3-carboxamide]	37.6	24.4	68.5							
39.7	34.3	Cc1c(F)cc(C(=O)NC2CC2)cc1-c1ccc(C(=O)c2c[nH]c3cc(OCC(O)CO)ccc23)cn1 (stereo not drawn) [Compound 3, N-cyclopropyl-3-(5-(6-(2,3-dihydroxypropoxy)-1H-indole-3-carbonyl)pyridin-2-yl)-5-fluoro-4-methylbenzamide]	39.2	12.3	16.7							
11.3	22.3	Cc1c(F)cc(C(=O)NC2CC2)cc1-c1ccc(C(=O)c2ccc(OCC(O)CO)cc2)cn1 (stereo not drawn) [Compound 1, N-cyclopropyl-3-(5-(4-(2,3-dihydroxypropoxy)benzoyl)pyridin-2-yl)-5-fluoro-4-methylbenzamide]	38.1	21.4	22.1							
